What was measured:
[1] = Cmax in non-fasted Beagle dog at 30 mg/kg, po by LC-MS/MS analysis; assay type: ADME, organism-based, Canis lupus familiaris; parameters: dose 30 mg/kg, route oral; settings: in vivo
[2] = Cmax in fasted Beagle dog at 30 mg/kg, po by LC-MS/MS analysis; assay type: ADME, organism-based, Canis lupus familiaris; parameters: dose 30 mg/kg, route oral; settings: in vivo
[3] = Tmax in non-fasted Sprague-Dawley rat at 30 mg/kg, po by LC-MS/MS analysis; assay type: ADME, organism-based; settings: in vivo
[4] = Cmax in non-fasted Sprague-Dawley rat at 30 mg/kg, po by LC-MS/MS analysis; assay type: ADME, organism-based; parameters: dose 30 mg/kg, route oral; settings: in vivo
[5] = AUC (0 to 8 hrs) in non-fasted Sprague-Dawley rat at 30 mg/kg, po by LC-MS/MS analysis; assay type: ADME, organism-based; parameters: dose 30 mg/kg, time < 8 hr, route oral; settings: in vivo
Hamster [6] = assay: Antiatherosclerotic activity in Bio F1B hamster model of diet-induced atherosclerosis assessed as reduction in lipid accumulation areas in aortic arch at 1 mg/kg/day added to chow pellets by oil red O staining based assay relative to control; assay type: functional; settings: Cricetinae
Hamster [7] = assay: Antiatherosclerotic activity in Bio F1B hamster model of diet-induced atherosclerosis assessed as reduction in lipid accumulation areas in aortic arch at 3 mg/kg/day added to chow pellets by oil red O staining based assay relative to control; assay type: functional; settings: Cricetinae
Hamster [8] = assay: Antiatherosclerotic activity in Bio F1B hamster model of diet-induced atherosclerosis assessed as reduction in lipid accumulation areas in aortic arch at 10 mg/kg/day added to chow pellets by oil red O staining based assay relative to control; assay type: functional; settings: Cricetinae
Hamster [9] = assay: Antiatherosclerotic activity in Bio F1B hamster model of diet-induced atherosclerosis assessed as reduction in lipid accumulation areas in aortic arch at 30 mg/kg/day added to chow pellets by oil red O staining based assay relative to control; assay type: functional; settings: Cricetinae
Hamster [10] = assay: Effect on lipid composition in Bio F1B hamster model of diet-induced atherosclerosis assessed as liver total cholesterol level at 1 mg/kg/day added to chow pellets (reference value: 31.99 mg/dl); assay type: functional, Cricetinae
Hamster [11] = assay: Effect on lipid composition in Bio F1B hamster model of diet-induced atherosclerosis assessed as liver total cholesterol level at 3 mg/kg/day added to chow pellets (reference value: 31.99 mg/dl); assay type: functional, Cricetinae
Hamster [12] = assay: Effect on lipid composition in Bio F1B hamster model of diet-induced atherosclerosis assessed as liver total cholesterol level at 10 mg/kg/day added to chow pellets (reference value: 31.99 mg/dl); assay type: functional, Cricetinae
Hamster [13] = assay: Effect on lipid composition in Bio F1B hamster model of diet-induced atherosclerosis assessed as liver total cholesterol level at 30 mg/kg/day added to chow pellets (reference value: 31.99 mg/dl); assay type: functional, Cricetinae
Hamster [14] = assay: Effect on lipid composition in Bio F1B hamster model of diet-induced atherosclerosis assessed as adrenal total cholesterol level at 1 mg/kg/day added to chow pellets (reference value: 10.54 mg/dl); assay type: functional, Cricetinae
Hamster [15] = assay: Effect on lipid composition in Bio F1B hamster model of diet-induced atherosclerosis assessed as adrenal total cholesterol level at 3 mg/kg/day added to chow pellets (reference value: 10.54 mg/dl); assay type: functional, Cricetinae
Hamster [16] = assay: Antiatherosclerotic activity in Bio F1B hamster model of diet-induced atherosclerosis assessed as plasma free cholesterol level at 1 mg/kg/day added to chow pellets (reference value: 780.8 mg/dl); assay type: functional, Cricetinae
Hamster [17] = assay: Antiatherosclerotic activity in Bio F1B hamster model of diet-induced atherosclerosis assessed as plasma free cholesterol level at 30 mg/kg/day added to chow pellets (reference value: 780.8 mg/dl); assay type: functional, Cricetinae
Hamster [18] = assay: Antiatherosclerotic activity in Bio F1B hamster model of diet-induced atherosclerosis assessed as liver free cholesterol level at 1 mg/kg/day added to chow pellets (reference value: 7.94 mg/dl); assay type: functional, Cricetinae
Hamster [19] = assay: Antiatherosclerotic activity in Bio F1B hamster model of diet-induced atherosclerosis assessed as liver free cholesterol level at 3 mg/kg/day added to chow pellets (reference value: 7.94 mg/dl); assay type: functional, Cricetinae
Hamster [20] = assay: Antiatherosclerotic activity in Bio F1B hamster model of diet-induced atherosclerosis assessed as liver free cholesterol level at 30 mg/kg/day added to chow pellets (reference value: 7.94 mg/dl); assay type: functional, Cricetinae
Hamster [21] = assay: Antiatherosclerotic activity in Bio F1B hamster model of diet-induced atherosclerosis assessed as intestinal free cholesterol level at 3 mg/kg/day added to chow pellets (reference value: 3.41 mg/dl); assay type: functional, Cricetinae
Hamster [22] = assay: Antiatherosclerotic activity in Bio F1B hamster model of diet-induced atherosclerosis assessed as intestinal free cholesterol level at 30 mg/kg/day added to chow pellets (reference value: 3.41 mg/dl); assay type: functional, Cricetinae
Hamster [23] = assay: Toxicity in Bio F1B hamster model of diet-induced atherosclerosis assessed as adrenal free cholesterol level at 3 mg/kg/day added to chow pellets (reference value: 4.65 mg/dl); assay type: organism-based; settings: cricetinae, in vivo
Hamster [24] = assay: Toxicity in Bio F1B hamster model of diet-induced atherosclerosis assessed as adrenal free cholesterol level at 10 mg/kg/day added to chow pellets (reference value: 4.65 mg/dl); assay type: organism-based; settings: cricetinae, in vivo
Hamster [25] = assay: Antiatherosclerotic activity in Bio F1B hamster model of diet-induced atherosclerosis assessed as plasma cholesterol ester level at 1 mg/kg/day added to chow pellets (reference value: 1379.3 mg/dl); assay type: functional, Cricetinae
Hamster [26] = assay: Antiatherosclerotic activity in Bio F1B hamster model of diet-induced atherosclerosis assessed as plasma cholesterol ester level at 3 mg/kg/day added to chow pellets (reference value: 1379.3 mg/dl); assay type: functional, Cricetinae
Hamster [27] = assay: Antiatherosclerotic activity in Bio F1B hamster model of diet-induced atherosclerosis assessed as plasma cholesterol ester level at 30 mg/kg/day added to chow pellets (reference value: 1379.3 mg/dl); assay type: functional, Cricetinae
Hamster [28] = assay: Antiatherosclerotic activity in Bio F1B hamster model of diet-induced atherosclerosis assessed as liver cholesterol ester level at 10 mg/kg/day added to chow pellets (reference value: 24.04 mg/dl); assay type: functional, Cricetinae
Hamster [29] = assay: Antiatherosclerotic activity in Bio F1B hamster model of diet-induced atherosclerosis assessed as liver cholesterol ester level at 30 mg/kg/day added to chow pellets (reference value: 24.04 mg/dl); assay type: functional, Cricetinae
Hamster [30] = assay: Antiatherosclerotic activity in Bio F1B hamster model of diet-induced atherosclerosis assessed as intestinal cholesterol ester level at 3 mg/kg/day added to chow pellets (reference value: 1.09 mg/dl); assay type: functional, Cricetinae
Hamster [31] = assay: Antiatherosclerotic activity in Bio F1B hamster model of diet-induced atherosclerosis assessed as intestinal cholesterol ester level at 30 mg/kg/day added to chow pellets (reference value: 1.09 mg/dl); assay type: functional, Cricetinae
Hamster [32] = assay: Antiatherosclerotic activity in Bio F1B hamster model of diet-induced atherosclerosis assessed as adrenal cholesterol ester level at 1 mg/kg/day added to chow pellets (reference value: 5.88 mg/dl); assay type: functional, Cricetinae
Hamster [33] = assay: Antiatherosclerotic activity in Bio F1B hamster model of diet-induced atherosclerosis assessed as adrenal cholesterol ester level at 3 mg/kg/day added to chow pellets (reference value: 5.88 mg/dl); assay type: functional, Cricetinae
Hamster [34] = assay: Antiatherosclerotic activity in Bio F1B hamster model of diet-induced atherosclerosis assessed as adrenal cholesterol ester level at 30 mg/kg/day added to chow pellets (reference value: 5.88 mg/dl); assay type: functional, Cricetinae

`CC(C)c1cccc(C(C)C)c1NC(=O)CCCCCCCCSc1nc2ccccc2o1` gave a Cmax [1] of 582 ng/mL, a Cmax [2] of 5 ng/mL and a Tmax [3] of 3.2 h. It also gave a Cmax [4] of 107 ng/mL, an AUC(0-t) at 8 h [5] of 358 ng·h/mL and an inhibition in vivo at 1 mg/kg/day (Hamster [6]) of 74%. The inhibition in vivo at 3 mg/kg/day (Hamster [7]) was 69%, the inhibition in vivo at 10 mg/kg/day (Hamster [8]) was 42% and the inhibition in vivo at 30 mg/kg/day (Hamster [9]) was 7%. For the same molecule, the Activity (Hamster [10]) was 30.75 mg/dL, the Activity (Hamster [11]) was 23.62 mg/dL and the Activity (Hamster [12]) was 11.52 mg/dL. The Activity (Hamster [13]) was 3.03 mg/dL, the Activity (Hamster [14]) was 11.13 mg/dL and the Activity (Hamster [15]) was 10.07 mg/dL. For the same molecule, the Activity (Hamster [16]) was 828.2 mg/dL, the Activity (Hamster [17]) was 217.2 mg/dL and the Activity (Hamster [18]) was 7.94 mg/dL. The Activity (Hamster [19]) was 5.95 mg/dL, the Activity (Hamster [20]) was 2.43 mg/dL and the Activity (Hamster [21]) was 3.18 mg/dL. The Activity (Hamster [22]) was 4.62 mg/dL, the Activity (Hamster [23]) was 4.05 mg/dL and the Activity (Hamster [24]) was 3.5 mg/dL. The Activity (Hamster [25]) was 1512.6 mg/dL, the Activity (Hamster [26]) was 1439.6 mg/dL and the Activity (Hamster [27]) was 259 mg/dL. It also gave an Activity (Hamster [28]) of 7.65 mg/dL, an Activity (Hamster [29]) of 0.69 mg/dL and an Activity (Hamster [30]) of 0.94 mg/dL. For the same molecule, the Activity (Hamster [31]) was 0.24 mg/dL, the Activity (Hamster [32]) was 6.72 mg/dL and the Activity (Hamster [33]) was 6.02 mg/dL. For the same molecule, the Activity (Hamster [34]) was 1.08 mg/dL.
